Assay results as given in EP1290011B1 (Oncopeptides AB, priority 2000, dated 2001).
Counter-ions that a name gives are not always drawn. Like-named read-outs stand apart in the source and are kept apart here.

Assays:
Assay in all cases: cells
H69AR = assay type: cell-based, human
U937gtb = assay type: cell-based, human
U937vcr = assay type: cell-based, human
CEM/S = assay type: cell-based, human
H69 = assay type: cell-based, human
8226Dox40 = assay type: cell-based, human
ACHN = assay type: cell-based, human
[1] = test system: panel of ten human tumour cell lines; assay type: cell-based; details: read-out: MEAN IC50
CEM/R = assay type: cell-based, human
8226S = assay type: cell-based, human
8226LR5 = assay type: cell-based, human
[2] = test system: hematological fresh human tumour specimens (PHTC); details: 72 h, read-out: Tumour cell survival index % Hematological
[3] = test system: solid tumour fresh human tumour specimens (PHTC); details: 72 h, read-out: Tumour cell survival index % Solid
U-1906E = assay type: cell-based; details: read-out: IC50
NCI-H23 = assay type: cell-based; details: read-out: IC50
U1690 = assay type: cell-based; details: read-out: IC50
U-1810 = assay type: cell-based; details: read-out: IC50
U-1568 = assay type: cell-based; details: read-out: IC50
NCI-H157 = assay type: cell-based; details: read-out: IC50
NCI-H125 = assay type: cell-based; details: read-out: IC50
NCI-H611 = assay type: cell-based; details: read-out: IC50
U1285 = assay type: cell-based; details: read-out: IC50
U-1752 = assay type: cell-based; details: read-out: IC50

Q: With CCOC(=O)[C@H](Cc1ccc([N+](=O)[O-])cc1)NC(=O)[C@@H](N)Cc1ccc(N(CCCl)CCCl)cc1 [JV26, L-Malphalanyl-L-p-nitrophenylalanine ethyl ester hydrochloride] as the molecule, how does the IC50 (H69AR; H69AR, doxorubicin resistance, 72 hours incubation, read-out: IC50) read?
A: Its IC50 is 510 nM.

Q: What about the IC50 (U937gtb; U937gtb, lymphoma, 72 hours incubation, read-out: IC50) of the same molecule?
A: Its IC50 is 230 nM.

Q: And the IC50 (U937vcr; U937vcr, vincristine resistance, 72 hours incubation, read-out: IC50)?
A: Its IC50 is 260 nM.

Q: What about the IC50 (CEM/S; CEM/S, 72 hours incubation, read-out: IC50) of the same molecule?
A: Its IC50 is 50 nM.

Q: What about the IC50 (H69; H69, small cell lung cancer, 72 hours incubation, read-out: IC50) of the same molecule?
A: The IC50 was 60 nM.

Q: And the IC50 (8226Dox40; 8226Dox40, doxorubicin resistance, 72 hours incubation, read-out: IC50)?
A: The IC50 was 1730 nM.

Q: What about the IC50 (ACHN; ACHN, primary resistant renal carcinoma, 72 hours incubation, read-out: IC50) of the same molecule?
A: The IC50 was 220 nM.

Q: What about the IC50 ([1]; mean over the ten cell lines) of the same molecule?
A: Its IC50 is 610 nM.

Q: And the IC50 (CEM/R; CEM/R, 72 hours incubation, read-out: IC50)?
A: The IC50 was 30 nM.

Q: And the IC50 (8226S; 8226S, myeloma, 72 hours incubation, read-out: IC50)?
A: The IC50 was 1050 nM.

Q: And the IC50 (8226LR5; 8226LR5, melphalan resistance, 72 hours incubation, read-out: IC50)?
A: The IC50 was 1990 nM.

Q: Which IC50 (H69AR; Homo sapiens, H69AR, 72 h) does the source give for CC[C@]1(O)C[C@H]2CN(CCc3c([nH]c4ccccc34)[C@@](C(=O)OC)(c3cc4c(cc3OC)N(C=O)[C@H]3[C@@](O)(C(=O)OC)[C@H](OC(C)=O)[C@]5(CC)C=CCN6CC[C@]43[C@@H]65)C2)C1 [Vincristine, vincristine, reference compound] here?
A: The IC50 was 121000 nM.

Q: And the IC50 (U937gtb; Homo sapiens, U-937/GTB, 72 h)?
A: Its IC50 is 10 nM.

Q: And the IC50 (U937vcr; Homo sapiens, 72 h)?
A: Its IC50 is 80 nM.

Q: What about the IC50 (CEM/S; Homo sapiens, 72 h) of the same molecule?
A: Its IC50 is 80 nM.

Q: What about the IC50 (H69; Homo sapiens, NCI-H69, 72 h) of the same molecule?
A: The IC50 was 69800 nM.

Q: What about the IC50 (8226Dox40; Homo sapiens, 72 h) of the same molecule?
A: The IC50 was 900 nM.

Q: What about the IC50 (ACHN; Homo sapiens, ACHN, 72 h) of the same molecule?
A: The IC50 was 109000 nM.

Q: What about the IC50 ([1]; Homo sapiens) of the same molecule?
A: Its IC50 is 30100 nM.

Q: What about the viability at 3 µM [2] of the same molecule?
A: Its viability at 3 µM is 39%.

Q: What about the viability at 3 µM [3] of the same molecule?
A: The viability at 3 µM was 93%.

Q: What about the IC50 (CEM/R; Homo sapiens, 72 h) of the same molecule?
A: Its IC50 is 10 nM.

Q: And the IC50 (8226S; Homo sapiens, 72 h)?
A: The IC50 was 10 nM.

Q: What about the IC50 (8226LR5; Homo sapiens, 72 h) of the same molecule?
A: The IC50 was 80 nM.

Q: How did the IC50 (H69AR; read-out: IC50) turn out when N.N.[Cl][Pt][Cl] [Cisplatin, cisplatin, reference compound] was run?
A: The IC50 was 13500 nM.

Q: What about the IC50 (U-1906E) of the same molecule?
A: The IC50 was 21100 nM.

Q: What about the IC50 (NCI-H23) of the same molecule?
A: Its IC50 is 11600 nM.

Q: And the IC50 (U1690)?
A: The IC50 was 6730 nM.

Q: And the IC50 (U937vcr; read-out: IC50)?
A: The IC50 was 3000 nM.

Q: What about the IC50 (CEM/S; read-out: IC50) of the same molecule?
A: The IC50 was 2500 nM.

Q: What about the IC50 (H69; read-out: IC50) of the same molecule?
A: The IC50 was 92500 nM.

Q: What about the IC50 (U-1810) of the same molecule?
A: Its IC50 is 10300 nM.

Q: What about the IC50 (ACHN; read-out: IC50) of the same molecule?
A: The IC50 was 17800 nM.

Q: And the IC50 [1]?
A: The IC50 was 18000 nM.

Q: And the IC50 (U-1568)?
A: Its IC50 is 23400 nM.

Q: What about the IC50 (NCI-H157) of the same molecule?
A: Its IC50 is 27000 nM.

Q: And the IC50 (CEM/R; read-out: IC50)?
A: Its IC50 is 1870 nM.

Q: What about the IC50 (NCI-H125) of the same molecule?
A: The IC50 was 7000 nM.

Q: And the IC50 (NCI-H611)?
A: Its IC50 is 50700 nM.

Q: What about the IC50 (8226S; read-out: IC50) of the same molecule?
A: The IC50 was 14800 nM.

Q: And the IC50 (U1285)?
A: Its IC50 is 2930 nM.

Q: And the IC50 (U-1752)?
A: The IC50 was 11700 nM.

Q: And the IC50 (8226LR5; read-out: IC50)?
A: Its IC50 is 16300 nM.

Q: What does the source list for CCOC(=O)[C@H](Cc1ccc(O)cc1)NC(=O)[C@@H](N)Cc1ccc(N(CCCl)CCCl)cc1 [JV24, L-Helphalanyl-L-tyrosine ethyl ester hydrochloride]?
A: IC50 (H69AR; read-out: IC50): 480 nM; IC50 (U937gtb; read-out: IC50): 200 nM; IC50 (U937vcr; read-out: IC50): 210 nM; IC50 (CEM/S; read-out: IC50): 50 nM; IC50 (H69; read-out: IC50): 80 nM; IC50 (8226Dox40; read-out: IC50): 5540 nM; IC50 (ACHN; read-out: IC50): 320 nM; IC50 [1]: 1050 nM; IC50 (CEM/R; read-out: IC50): 30 nM; IC50 (8226S; read-out: IC50): 1110 nM; IC50 (8226LR5; read-out: IC50): 2500 nM

Q: CCOC(=O)[C@H](Cc1ccccc1)NC(=O)[C@@H](N)Cc1ccc(N(CCCl)CCCl)cc1 [JV22, L-Melphalanyl-L-phenylalanine ethyl ester hydrochloride] was tested. Which IC50 (H69AR; read-out: IC50) did it give?
A: The IC50 was 390 nM.

Q: What about the IC50 (U937gtb; read-out: IC50) of the same molecule?
A: The IC50 was 140 nM.

Q: What about the IC50 (U937vcr; read-out: IC50) of the same molecule?
A: Its IC50 is 130 nM.

Q: And the IC50 (CEM/S; read-out: IC50)?
A: The IC50 was 20 nM.

Q: And the IC50 (H69; read-out: IC50)?
A: The IC50 was 40 nM.

Q: And the IC50 (8226Dox40; read-out: IC50)?
A: Its IC50 is 1380 nM.

Q: And the IC50 (ACHN; read-out: IC50)?
A: The IC50 was 170 nM.

Q: What about the IC50 [1] of the same molecule?
A: The IC50 was 480 nM.

Q: And the IC50 (CEM/R; read-out: IC50)?
A: Its IC50 is 10 nM.

Q: What about the IC50 (8226S; read-out: IC50) of the same molecule?
A: The IC50 was 670 nM.

Q: What about the IC50 (8226LR5; read-out: IC50) of the same molecule?
A: Its IC50 is 1860 nM.

Q: With CCC1=C[C@@H]2CN(C1)Cc1c([nH]c3ccccc13)[C@@](C(=O)OC)(c1cc3c(cc1OC)N(C)[C@H]1[C@@](O)(C(=O)OC)[C@H](OC(C)=O)[C@]4(CC)C=CCN5CC[C@]31[C@@H]54)C2 [Vinorelbine, vinorelbine] as the molecule, how does the viability at 3.1 µM [2] read?
A: The viability at 3.1 µM was 50%.

Q: And the viability at 3.1 µM [3]?
A: Its viability at 3.1 µM is 73%.

Q: How did the viability at 10.3 µM [3] turn out when Nc1ccn([C@@H]2O[C@H](CO)[C@@H](O)[C@@H]2O)c(=O)n1 [AraC] was run?
A: The viability at 10.3 µM was 102%.
